Like-named read-outs stand apart in the source and are kept apart here.
What was measured:
GM1 production = test: cells; assay type: cell-based
[1] = biological target: glucosylceramide synthase (GCS) (Homo sapiens (Human), UniProt Q16739); test: Evaluation of inhibitory activities against GCS (enzyme reaction with A549 cell lysate, NBD C6-ceramide, HPLC fluorescence); assay type: biochemical; conditions: GCS activity in A549 cell lysate, 37° C. for 90 minutes
How it was run: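 Lysate of A549 cells in 50 mM HEPES pH 7.3 incubated with test compound and NBD C6-ceramide at 37 °C for 90 min; lipids extracted with chloroform/methanol and GlcCer and ceramide peaks quantified by HPLC fluorescence. Activity from GlcCer area fraction, normalised between DMSO and ibiglustat controls.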

glucosylceramide synthase (GCS), sequence (Q16739 whole entry, looked up): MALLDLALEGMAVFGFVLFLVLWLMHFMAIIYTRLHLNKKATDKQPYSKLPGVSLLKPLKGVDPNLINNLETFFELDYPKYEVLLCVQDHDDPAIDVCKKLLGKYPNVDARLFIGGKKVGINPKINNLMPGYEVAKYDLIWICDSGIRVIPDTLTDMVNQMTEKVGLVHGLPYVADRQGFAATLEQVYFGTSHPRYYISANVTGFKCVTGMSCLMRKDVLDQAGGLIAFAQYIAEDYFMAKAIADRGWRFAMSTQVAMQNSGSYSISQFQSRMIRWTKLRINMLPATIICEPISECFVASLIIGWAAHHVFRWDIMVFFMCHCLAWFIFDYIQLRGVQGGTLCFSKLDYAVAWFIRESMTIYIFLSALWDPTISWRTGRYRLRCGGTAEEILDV

Compound | IC50 (GM1 production; Homo sapiens, Jurkat, 72 h) | IC50 [1] | IC50 (GM1 production; read-out: IC50)
CC1(C)CCc2cc(-c3cc(F)ccc3F)ccc2C1NC(=O)O[C@@H]1CN2CCC1CC2 (stereo partly drawn) [Example 103, (S)-quinuclidin-3-yl (6-(2,5-difluorophenyl)-2,2-dimethyl-1,2,3,4-tetrahydronaphthalen-1-yl)carbamate] | 0.997 nM | 0.95 nM | 
CC1(C)CCc2ccc(-c3ccccc3OC(F)(F)F)cc2C1NC(=O)O[C@@H]1CN2CCC1CC2 (stereo partly drawn) [Example 162, (S)-quinuclidin-3-yl (2,2-dimethyl-7-(2-(trifluoromethoxy)phenyl)-1,2,3,4-tetrahydronaphthalen-1-yl)carbamate] | 57.4 nM | 10.6 nM | 
CCCCOc1ccc(-c2ccc3c(c2)CCC(C)(C)C3NC(=O)O[C@@H]2CN3CCC2CC3)cc1Cl (stereo partly drawn) [Example 143, (S)-quinuclidin-3-yl (6-(4-butoxy-3-chlorophenyl)-2,2-dimethyl-1,2,3,4-tetrahydronaphthalen-1-yl)carbamate] | 0.5 nM | 1.44 nM | 
COCCOc1ccc(-c2ccc3c(c2)CCCC3NC(=O)O[C@@H]2CN3CCC2CC3)cc1 (stereo partly drawn) [Example 25, (S)-quinuclidin-3-yl (6-(4-(2-methoxyethoxy)phenyl)-1,2,3,4-tetrahydronaphthalen-1-yl)carbamate] | 45.1 nM | 15 nM | 
COCOc1ccc(-c2ccc3c(c2)CCC2(CC2)C3NC(=O)O[C@@H]2CN3CCC2CC3)cc1 (stereo partly drawn) [Example 197, (S)-quinuclidin-3-yl (6′-(4-(methoxymethoxy)phenyl)-3′,4′-dihydro-1′H-spiro[cyclopropane-1,2′-naphthalen]-1′-yl)carbamate] | 2.8 nM | 3.13 nM | 
(S)-quinuclidin-3-yl (2,2-dimethyl-7-(2-(p-tolyl)-1,2,3,4-tetrahydronaphthalen-1-yl)carbamate [Example 163] |  | 15.3 nM | 55.1 nM
O=C(NC1CCCc2ccc(-c3ccc4c(c3)OCO4)cc21)O[C@@H]1CN2CCC1CC2 (stereo partly drawn) [Example 84, (S)-quinuclidin-3-yl (7-(benzo[d]dioxol-5-yl)-1,2,3,4-tetrahydronaphthalen-1-yl)carbamate] | 144 nM | 75.6 nM | 
COCCOc1cccc(-c2ccc3c(c2)C(NC(=O)O[C@@H]2CN4CCC2CC4)C(C)(C)CC3)c1 (stereo partly drawn) [Example 166, (S)-quinuclidin-3-yl (7-(3-(2-methoxyethoxy)phenyl)-2,2-dimethyl-1,2,3,4-tetrahydronaphthalen-1-yl)carbamate] | 392 nM | 56.2 nM | 
CCOc1cccc(-c2ccc3c(c2)CCC2(CC2)C3NC(=O)O[C@@H]2CN3CCC2CC3)c1 (stereo partly drawn) [Example 218, (S)-quinuclidin-3-yl (6′-(3-ethoxyphenyl)-3′,4′-dihydro-1′H-spiro[cyclopropane-1,2′-naphthalen]-1′-yl)carbamate] | 63.3 nM | 19.8 nM | 
COCOc1cccc(-c2ccc3c(c2)CCC(C)(C)C3NC(=O)O[C@@H]2CN3CCC2CC3)c1 (stereo partly drawn) [Example 114, (S)-quinuclidin-3-yl (6-(3-(methoxymethoxy)phenyl)-2,2-dimethyl-1,2,3,4-tetrahydronaphthalen-1-yl)carbamate] | 1.27 nM | 1.8 nM | 
CC1(C)CCc2cc(-c3cc(F)cc(F)c3)ccc2C1NC(=O)O[C@@H]1CN2CCC1CC2 (stereo partly drawn) [Example 104, (S)-quinuclidin-3-yl (6-(3,5-difluorophenyl)-2,2-dimethyl-1,2,3,4-tetrahydronaphthalen-1-yl)carbamate] | 2.27 nM | 2.25 nM | 
O=C(NC1CCCc2cc(-c3ccc(Cl)cc3)ccc21)O[C@@H]1CN2CCC1CC2 (stereo partly drawn) [Example 2, (S)-quinuclidin-3-yl (6-(4-chlorophenyl)-1,2,3,4-tetrahydronaphthalen-1-yl)carbamate] | 54.5 nM | 3.04 nM | 
CCOc1ccc(-c2ccc3c(c2)C(NC(=O)O[C@@H]2CN4CCC2CC4)CCC3)cc1 (stereo partly drawn) [Example 81, (S)-quinuclidin-3-yl (7-(4-ethoxyphenyl)-1,2,3,4-tetrahydronaphthalen-1-yl)carbamate] | 410 nM | 63.3 nM | 
COc1ccc(-c2ccc3c(c2)CCC2(CC2)C3NC(=O)O[C@@H]2CN3CCC2CC3)cc1 (stereo partly drawn) [Example 215, (S)-quinuclidin-3-yl (6′-(4-methoxyphenyl)-3′,4′-dihydro-1′H-spiro[cyclopropane-1,2′-naphthalen]-1′-yl) carbamate] |  | 2.35 nM | 57.3 nM
COc1ccc(-c2ccc3c(c2)CCC2(CC2)C3NC(=O)O[C@@H]2CN3CCC2CC3)cc1OC (stereo partly drawn) [Example 213, (S)-quinuclidin-3-yl (6′-(3,4-dimethoxyphenyl)-3′,4′-dihydro-1′H-spiro[cyclopropane-1,2′-naphthalen]-1′-yl)carbamate] | 145 nM | 34.2 nM | 
Cc1cc(-c2ccc3c(c2)CCC(C)(C)C3NC(=O)O[C@@H]2CN3CCC2CC3)ccn1 (stereo partly drawn) [Example 117, (S)-quinuclidin-3-yl (2,2-dimethyl-6-(2-methylpyridin-4-yl)-1,2,3,4-tetrahydronaphthalen-1-yl)carbamate] | 37.8 nM | 30.3 nM | 

Compound | IC50 (GM1 production; Homo sapiens, Jurkat, 72 h) | IC50 [1] | IC50 (GM1 production; read-out: IC50)
CC1(C)CCc2cc(-c3ccc(F)cc3)ccc2C1NC(=O)O[C@@H]1CN2CCC1CC2 (stereo partly drawn) [Example 86, (S)-quinuclidin-3-yl (6-(4-fluorophenyl)-2,2-dimethyl-1,2,3,4-tetrahydronaphthalen-1-yl)carbamate] | 14.2 nM | 2.6 nM | 
COCOc1ccccc1-c1ccc2c(c1)CCC1(CC1)C2NC(=O)O[C@@H]1CN2CCC1CC2 (stereo partly drawn) [Example 199, (S)-quinuclidin-3-yl (6′-(2-(methoxymethoxy)phenyl)-3′,4′-dihydro-1′H-spiro[cyclopropane-1,2′-naphthalen]-1′-yl)carbamate] | 7.63 nM | 7.24 nM | 
COc1cccc(-c2ccc3c(c2)CCC2(CC2)C3NC(=O)O[C@@H]2CN3CCC2CC3)c1OC (stereo partly drawn) [Example 209, (S)-quinuclidin-3-yl (6′-(2,3-dimethoxyphenyl)-3′,4′-dihydro-1′H-spiro[cyclopropane-1,2′-naphthalen]-1′-yl)carbamate] | 47 nM | 15.2 nM | 
O=C(NC1CCCc2cc(-c3ccc(N4CCOCC4)cc3)ccc21)O[C@@H]1CN2CCC1CC2 (stereo partly drawn) [Example 45, (S)-quinuclidin-3-yl (6-(4-morpholinophenyl)-1,2,3,4-tetrahydronaphthalen-1-yl)carbamate] | 152 nM | 21.3 nM | 
CC1(C)CCc2cc(-c3cccc(C(F)(F)F)c3)ccc2C1NC(=O)O[C@@H]1CN2CCC1CC2 (stereo partly drawn) [Example 92, (S)-quinuclidin-3-yl (2,2-dimethyl-6-(3-(trifluoromethyl)phenyl)-1,2,3,4-tetrahydronaphthalen-1-yl)carbamate] | 2.72 nM | 1.04 nM | 
CC(C)(C)c1cccc(-c2ccc3c(c2)CCC2(CC2)C3NC(=O)O[C@@H]2CN3CCC2CC3)c1 (stereo partly drawn) [Example 204, (S)-quinuclidin-3-yl (6′-(3-(tert-butyl)phenyl)-3′,4′-dihydro-1′H-spiro[cyclopropane-1,2′-naphthalen]-1′-yl)carbamate] | 92.9 nM | 38.4 nM | 
O=C(NC1CCCc2cc(-c3cnc4[nH]ccc4c3)ccc21)O[C@@H]1CN2CCC1CC2 (stereo partly drawn) [Example 52, (S)-quinuclidin-3-yl (6-(1H-pyrrolo[2,3-b]pyridin-5-yl)-1,2,3,4-tetrahydronaphthalen-1-yl)carbamate] | 22.7 nM | 31.8 nM | 
CC(=O)c1sccc1-c1ccc2c(c1)CCC(C)(C)C2NC(=O)O[C@@H]1CN2CCC1CC2 (stereo partly drawn) [Example 150, (S)-quinuclidin-3-yl (6-(2-acetylthiophen-3-yl)-2,2-dimethyl-1,2,3,4-tetrahydronaphthalen-1-yl)carbamate] | 17.1 nM | 8.7 nM | 
O=C(NC1c2ccc(-c3ccc(F)cc3)cc2CCC12CC2)O[C@@H]1CN2CCC1CC2 (stereo partly drawn) [Example 186, (S)-quinuclidin-3-yl (6′-(4-fluorophenyl)-3′,4′-dihydro-1′H-spiro[cyclopropane-1,2′-naphthalen]-1′-yl)carbamate] | 79.8 nM | 24.4 nM | 
COc1cc(-c2ccc3c(c2)CCC2(CC2)C3NC(=O)O[C@@H]2CN3CCC2CC3)ccc1Cl (stereo partly drawn) [Example 201, (S)-quinuclidin-3-yl (6′-(4-chloro-3-methoxyphenyl)-3′,4′-dihydro-1′H-spiro[cyclopropane-1,2′-naphthalen]-1′-yl)carbamate] | 111 nM | 33.5 nM | 
O=C(NC1c2cc(-c3ccccc3F)ccc2CCC12CC2)O[C@@H]1CN2CCC1CC2 (stereo partly drawn) [Example 179, (S)-quinuclidin-3-yl (7′-(2-fluorophenyl)-3′,4′-dihydro-1′H-spiro[cyclopropane-1,2′-naphthalen]-1′-yl)carbamate] | 115 nM | 10 nM | 
O=C(NC1CCCc2cc(-c3ccnc4[nH]ccc34)ccc21)O[C@@H]1CN2CCC1CC2 (stereo partly drawn) [Example 54, (S)-quinuclidin-3-yl (6-(1H-pyrrolo[2,3-b]pyridin-4-yl)-1,2,3,4-tetrahydronaphthalen-1-yl)carbamate] | 216 nM | 61.8 nM | 
COc1ccc(-c2ccc3c(c2)C(NC(=O)O[C@@H]2CN4CCC2CC4)CCC3)cc1 (stereo partly drawn) [Example 80, (S)-quinuclidin-3-yl (7-(4-methoxyphenyl)-1,2,3,4-tetrahydronaphthalen-1-yl)carbamate] | 225 nM | 15.4 nM | 
Cc1ccc(-c2ccc3c(c2)CCCC3NC(=O)O[C@@H]2CN3CCC2CC3)cc1 (stereo partly drawn) [Example 14, (S)-quinuclidin-3-yl (6-(p-tolyl)-1,2,3,4-tetrahydronaphthalen-1-yl)carbamate] | 61.8 nM | 8.8 nM | 
CCCc1ccc(-c2cc3c(cc2F)C(NC(=O)O[C@@H]2CN4CCC2CC4)C(C)(C)CC3)cc1 (stereo partly drawn) [Example 229, (S)-quinuclidin-3-yl (7-fluoro-2,2-dimethyl-6-(4-propylphenyl)-1,2,3,4-tetrahydronaphthalen-1-yl)carbamate] | 1.7 nM | 0.31 nM | 

Source: patent US12338237B2, “Derivatives having 1,2,3,4-tetrahydronaphthalene moiety or pharmaceutically acceptable salt thereof and pharmaceutical compositions comprising the same” (YUHAN CORPORATION, priority 2019, dated 2025)
